From patent US11377451B2, “Compositions and methods for treating cancer” (The Regents of the University of California, priority 2019, dated 2022)

Tests used:
[1] = tested on: HK301; assay: GI50 assay (Cell Titer Glo proliferation, 3 days); type: cell-based, human; settings: Homo sapiens, 72 h; HK301, 3 days; read-out: HK301 GI50
[2] = Protein binding (fraction unbound in blood and brain)
[3] = tested on: GBM39; assay: GI50 assay (Cell Titer Glo proliferation, 3 days); type: cell-based, human; settings: Homo sapiens, 72 h; GBM39, 3 days
[4] = Pharmacokinetic / brain penetration studies in mice; type: in vivo; settings: male, CD-1, mouse, brain / plasma; non-tumor bearing mice
Description: Pharmacokinetic studies were performed on male CD-1 mice aged 8-10 weeks. Mice were dosed as indicated in duplicates. At the time points, whole blood was obtained by retro-orbital bleeding and brain tissue was harvested. Blood samples were centrifuged to obtain plasma and brain tissue was washed and homogenized. Samples were extracted with acetonitrile and supernatant was dried using a speed-vac. Dried samples were solubilized in 50:50:0.1 acetonitrile:water:formic acid and quantified on an Agilent 6400 series Triple Quadrupole LC/MS.
Disclosed in table 5 Brain to plasma percentages and unbound ratios of drugs in brain to plasma of indicated drugs in non-tumor bearing mice

SMILES	GI50 [1]	GI50 [3]	further results
Fc1c(Br)cccc1Nc1ncnc2cc3c(cc12)OC(CN1CCOCC1)CO3 (racemic) [JGK063, (±)-N-(3-Bromo-2-fluorophenyl)-7-[(morpholin-4-yl)methyl]-7,8-dihydro[1,4]dioxino[2,3-g]quinazolin-4-amine]	0.816 µM	3.43 µM	Bound (blood) ([2]; blood): 91.96%; fraction unbound ([2]; blood, Fu (blood)): 0.0804; Bound (brain) ([2]; brain): 96.22%; fraction unbound ([2]; brain, Fu (brain)): 0.0378; Kp [4]: 0.725
Fc1c(Br)cccc1Nc1ncnc2cc3c(cc12)OCC(CCN1CCCCC1)O3 (racemic) [JGK090, (±)-N-(3-Bromo-2-fluorophenyl)-8-[2-(piperidin-1-yl)ethyl]-7,8-dihydro[1,4]dioxino[2,3-g]quinazolin-4-amine]	2.39 µM	4.33 µM	
C#Cc1cccc(N(C(=O)OC(C)(C)C)C2=NC(OC)N(C(=O)OC(C)(C)C)c3cc(OCCOC)c(OCCOC)cc32)c1 (stereo not drawn) [JGK001]	2.21 µM	19.7 µM	
C#Cc1cccc(N(C(C)=O)c2ncnc3cc(OCCOC)c(OCCOC)cc23)c1 [JGK002]	5.45 µM	19.8 µM	
C#Cc1cccc(N(C(=O)OC(C)(C)C)C2=NC(OCC)N(C(=O)OC(C)(C)C)c3cc(OCCOC)c(OCCOC)cc32)c1 (stereo not drawn) [JGK003]	1.13 µM	23.1 µM	
O=C(Oc1cc2ncnc(Nc3cccc(Cl)c3F)c2cc1OC(=O)c1ccccc1)c1ccccc1 [JGK004]	23.4 µM	103 µM	
C#Cc1cccc(Nc2ncnc3cc(OC(=O)c4ccccc4)c(OC(=O)c4ccccc4)cc23)c1 [JGK006]	11 µM	51.4 µM	
C#Cc1cccc(N(C(=O)CCCCOC(=O)CCCCOC(=O)CCCCOC(C)=O)c2ncnc3cc(OCCOC)c(OCCOC)cc23)c1 [JGK009]	6.1 µM	14.6 µM	
CC(=O)N(CCS(C)(=O)=O)Cc1ccc(-c2ccc3ncnc(N(C(C)=O)c4ccc(OCc5cccc(F)c5)c(Cl)c4)c3c2)o1 [JGK011]	9.21 µM	3.25 µM	
CC(=O)N(c1cccc(Cl)c1F)c1ncnc2cc3c(cc12)OCCO3 [JGK0012]	5.48 µM	10.8 µM	
COC1N=C(N(C(=O)OC(C)(C)C)c2cccc(Cl)c2F)c2cc3c(cc2N1C(=O)OC(C)(C)C)OCCO3 (stereo not drawn) [JGK013]	1.55 µM	220 µM	
COC(=O)[C@@H](Cc1ccc(Nc2ncnc3cc4c(cc23)OCCO4)cc1)NC(=O)OC(C)(C)C [JGK014]	11.8 µM	27.9 µM	
COC(=O)[C@H](Cc1ccc(Nc2ncnc3cc4c(cc23)OCCO4)cc1)NC(=O)OC(C)(C)C [JGK015]	2.15 µM	11.5 µM	
COC(=O)[C@@H](N)Cc1ccc(Nc2ncnc3cc4c(cc23)OCCO4)cc1 [JGK016]	4.05 µM	61.6 µM	
FC(F)(F)c1c(Cl)cccc1Nc1ncnc2cc3c(cc12)OCCO3 [JGK017]	64.2 µM	97.6 µM	
COc1cc2ncnc(Nc3cccc(Cl)c3F)c2cc1OC(C)=O [JGK018]	1.07 µM	4.54 µM	
COC(=O)[C@H](Cc1ccc(Nc2ncnc3cc(O)c(O)cc23)cc1)NC(=O)OC(C)(C)C [JGK020]	29.2 µM	36.2 µM	
N[C@H](Cc1ccc(Nc2ncnc3cc4c(cc23)OCCO4)cc1)C(=O)O [JGK021]	481 µM	556 µM	
Oc1cc2ncnc(Nc3cccc(Cl)c3F)c2cc1O [JGK022]	31.1 µM	150 µM	
N[C@@H](Cc1ccc(Nc2ncnc3cc4c(cc23)OCCO4)cc1)C(=O)O [JGK023]	86.2 µM	96.3 µM	
COC(=O)[C@H](Cc1ccc(NC(=O)COc2cc3c(Nc4cccc(Cl)c4F)ncnc3cc2OC)cc1)NC(=O)OC(C)(C)C [JGK024]	156 µM	125 µM	
Fc1ccc(Nc2ncnc3cc4c(cc23)OCCO4)c(F)c1 [JGK025]	10.7 µM	27.7 µM	
Fc1ccc(F)c(Nc2ncnc3cc4c(cc23)OCCO4)c1 [JGK026]	6.12 µM	16.5 µM	
Fc1cccc(F)c1Nc1ncnc2cc3c(cc12)OCCO3 [JGK027]	5.81 µM	11.8 µM	

SMILES	GI50 [1]	GI50 [3]	further results
Fc1cc(F)c(Nc2ncnc3cc4c(cc23)OCCO4)c(F)c1 [JGK029]	24.4 µM	34 µM	
Fc1c(F)c(F)c(Nc2ncnc3cc4c(cc23)OCCO4)c(F)c1F [JGK030]	559 µM	961 µM	
Fc1ccccc1Nc1ncnc2cc3c(cc12)OCCO3 [JGK035, N-(2-Fluorophenyl)-7,8-dihydro[1,4]dioxino[2,3-g]quinazolin-4-amine]	4.04 µM	10.7 µM	
[2H]C1([2H])Oc2cc3ncnc(Nc4cccc(Cl)c4F)c3cc2OC1([2H])[2H] [JGK036, N-(3-Chloro-2-fluorophenyl)(7,7,8,8-^2H4)-7,8-dihydro[1,4]dioxino[2,3-g]quinazolin-4-amine]	1.05 µM	4.51 µM	
Fc1c(Nc2ncnc3cc4c(cc23)OCCO4)cccc1C(F)(F)F [JGK039, N-[2-Fluoro-3-(trifluoromethyl)phenyl]-7,8-dihydro[1,4]dioxino[2,3-g]quinazolin-4-amine]	3.61 µM	7.82 µM	
Fc1c(Cl)cccc1Nc1ncnc2cc3c(cc12)OCCCO3 [JGK040, N-(3-Chloro-2-fluorophenyl)-8,9-dihydro-7H-[1,4]dioxepino[2,3-g]quinazolin-4-amine]	1.72 µM	7.12 µM	
Fc1c(Cl)cccc1Nc1ncnc2cc3c(cc12)OCO3 [JGK041, N-(3-Chloro-2-fluorophenyl)-2H-[1,3]dioxolo[4,5-g]quinazolin-8-amine]	1.66 µM	6.04 µM	
CC(=O)OCN(c1cccc(Cl)c1F)c1ncnc2cc3c(cc12)OCCO3 [JGK043, [(3-Chloro-2-fluorophenyl)(7,8-dihydro[1,4]dioxino[2,3-g]quinazolin-4-yl)amino]methyl acetate]	0.745 µM	1.78 µM	
N#Cc1cccc(Nc2ncnc3cc4c(cc23)OCCO4)c1F [JGK044, 3-[(7,8-Dihydro[1,4]dioxino[2,3-g]quinazolin-4-yl)amino]-2-fluorobenzonitrile]	4.52 µM	5.63 µM	
N#Cc1cccc(Nc2ncnc3cc4c(cc23)OCCO4)c1 [JGK045, 3-[(7,8-Dihydro[1,4]dioxino[2,3-g]quinazolin-4-yl)amino]benzonitrile]	3.94 µM	10.9 µM	
Fc1c(Nc2ncnc3cc4c(cc23)OCCO4)ccc(Cl)c1Br [JGK053, N-(3-Bromo-4-chloro-2-fluorophenyl)-7,8-dihydro[1,4]dioxino[2,3-g]quinazolin-4-amine]	2.78 µM	5.28 µM	
Fc1c(Nc2ncnc3cc4c(cc23)OCCO4)ccc(Br)c1Br [JGK054, N-(3,4-Dibromo-2-fluorophenyl)-7,8-dihydro[1,4]dioxino[2,3-g]quinazolin-4-amine]	5.72 µM	7.7 µM	
Fc1ccc(Br)cc1Nc1ncnc2cc3c(cc12)OCCO3 [JGK055, N-(5-Bromo-2-fluorophenyl)-7,8-dihydro[1,4]dioxino[2,3-g]quinazolin-4-amine]	0.29 µM	0.966 µM	
Fc1ccc(Br)c(F)c1Nc1ncnc2cc3c(cc12)OCCO3 [JGK056, N-(3-Bromo-2,6-difluorophenyl)-7,8-dihydro[1,4]dioxino[2,3-g]quinazolin-4-amine]	0.419 µM	1.36 µM	
Fc1ccc(Nc2ncnc3cc4c(cc23)OCCO4)c(F)c1Br [JGK057, N-(3-Bromo-2,4-difluorophenyl)-7,8-dihydro[1,4]dioxino[2,3-g]quinazolin-4-amine]	1.38 µM	9.36 µM	
Fc1c(Br)cc(Cl)cc1Nc1ncnc2cc3c(cc12)OCCO3 [JGK058, N-(3-Bromo-5-chloro-2-fluorophenyl)-7,8-dihydro[1,4]dioxino[2,3-g]quinazolin-4-amine]	1.85 µM	13 µM	
Fc1c(Nc2ncnc3cc4c(cc23)OCCO4)ccc(Cl)c1Cl [JGK060, N-(3,4-Dichloro-2-fluorophenyl)-7,8-dihydro[1,4]dioxino[2,3-g]quinazolin-4-amine]	2.95 µM	3.5 µM	
Fc1cc(Br)c(F)c(Nc2ncnc3cc4c(cc23)OCCO4)c1 [JGK061, N-(3-Bromo-2,5-difluorophenyl)-7,8-dihydro[1,4]dioxino[2,3-g]quinazolin-4-amine]	1.13 µM	1.73 µM	
CN(C)C[C@H]1COc2cc3ncnc(Nc4cccc(Br)c4F)c3cc2O1 [JGK066S]	0.301 µM	2.63 µM	
Fc1c(Br)cccc1Nc1ncnc2c(F)c3c(cc12)OCCO3 [JGK071, N-(3-Bromo-2-fluorophenyl)-10-fluoro-7,8-dihydro[1,4]dioxino[2,3-g]quinazolin-4-amine]	5.75 µM	10.3 µM	
Fc1c(Br)cccc1Nc1ncnc2cc3c(c(F)c12)OCCO3 [JGK072, N-(3-Bromo-2-fluorophenyl)-5-fluoro-7,8-dihydro[1,4]dioxino[2,3-g]quinazolin-4-amine]	5.02 µM	12 µM	
Brc1cccc(Nc2ncnc3cc4c(cc23)OCCO4)c1 [JGK073]	2.06 µM	6.07 µM	
CN1CCN(CC2COc3cc4ncnc(Nc5cccc(Br)c5)c4cc3O2)CC1 (stereo not drawn) [JGK074]	2.28 µM	6.67 µM	Kp [4]: 1.66
OC[C@H]1COc2cc3ncnc(Nc4cccc(Br)c4F)c3cc2O1 [JGK082S]	1.67 µM	1.89 µM	
